The text below walks through data of patent US9732087B2, “Diamino-pyridine, pyrimidine, and pyridazine modulators of the histamine H4 receptor” (JANSSEN PHARMACEUTICA NV, priority 2008, dated 2017).

Each structure is given as a SMILES string.

For this experiment, the target named is human H4 receptor (Homo sapiens (Human), UniProt Q9H3N8). The experiment can be described thus: Binding assay on recombinant human histamine H4 receptor ([3H]histamine competition, SK-N-MC cell membranes). The following applies: membranes harvested with cell harvester; [3H]histamine 10 nM; average of results; read-out: Cell Harvester Ki. In a few lines: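 Membranes from SK-N-MC cells stably or transiently transfected with human H4 receptor, prepared by homogenization and 30,000 g centrifugation in Tris/EDTA. Bound [3H]histamine separated by rapid filtration on PEI-treated GF/C filters, washed with ice-cold Tris/EDTA, counted by scintillation. '>' values denote highest concentration tested.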
Sequence of human H4 receptor (Q9H3N8 whole entry): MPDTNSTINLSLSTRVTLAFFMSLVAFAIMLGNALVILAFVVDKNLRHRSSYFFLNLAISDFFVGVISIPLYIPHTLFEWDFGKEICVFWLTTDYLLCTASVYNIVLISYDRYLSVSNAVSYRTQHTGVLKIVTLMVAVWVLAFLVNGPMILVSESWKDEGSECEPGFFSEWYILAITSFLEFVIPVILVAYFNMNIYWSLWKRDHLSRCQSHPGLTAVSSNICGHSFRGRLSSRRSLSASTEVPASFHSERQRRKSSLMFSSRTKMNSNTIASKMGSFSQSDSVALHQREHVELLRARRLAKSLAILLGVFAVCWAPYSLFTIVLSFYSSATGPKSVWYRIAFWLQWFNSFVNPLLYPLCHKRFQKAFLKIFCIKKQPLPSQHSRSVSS

Turning to `CNC1CN(c2cnnc(NCC3CCCC3)c2)C1` [Example 370, N-(Cyclopentylmethyl)-5-[3-(methylamino)azetidin-1-yl]pyridazin-3-amine], the inhibition constant (Ki) turned out to be 224 nM.
As to `CC(C)(C)CNc1cc(N2CC[C@@H](N)C2)cnn1` [Example 371, 5-[(3R)-3-Aminopyrrolidin-1-yl]-N-(2,2-dimethylpropyl)pyridazin-3-amine], the Ki was 130 nM.
In the case of `CN[C@@H]1CCN(c2cnnc(NCCc3ccccc3)c2)C1` [Example 372, 5-[(3R)-3-(Methylamino)pyrrolidin-1-yl]-N-(2-phenylethyl)pyridazin-3-amine] it was 139 nM.
To `CN[C@H]1CCN(c2cnnc(N[C@H](C)C3CCCCC3)c2)C1` [Example 373, N-[(1R)-1-Cyclohexylethyl]-5-[(3S)-3-(methylamino)pyrrolidin-1-yl]pyridazin-3-amine] belongs 143 nM; to `CN[C@H]1CCN(c2cnnc(NCC3CC4CCC3C4)c2)C1` (stereo partly drawn) [Example 374, N-(Bicyclo[2.2.1]hept-2-ylmethyl)-5-[(3S)-3-(methylamino)pyrrolidin-1-yl]pyridazin-3-amine], 298 nM; to `CN[C@@H]1CCN(c2cnnc(NCC3CC4CCC3C4)c2)C1` (stereo partly drawn) [Example 375, N-(Bicyclo[2.2.1]hept-2-ylmethyl)-5-[(3R)-3-(methylamino)pyrrolidin-1-yl]pyridazin-3-amine], 66.8 nM.
`CN[C@H]1CCN(c2cnnc(NCCOC)c2)C1` [Example 376, N-(2-Methoxyethyl)-5-[(3S)-3-(methylamino)pyrrolidin-1-yl]pyridazin-3-amine]: the Ki was more than 10000 nM.
In the case of `CN[C@@H]1CCN(c2cnnc(NC3CC3)c2)C1` [Example 377, N-Cyclopropyl-5-[(3R)-3-(methylamino)pyrrolidin-1-yl]pyridazin-3-amine] it was 699 nM; in that of `CN[C@@H]1CCN(c2cnnc(N[C@H](C)C3CCCCC3)c2)C1` [Example 378, N-[(1R)-1-Cyclohexylethyl]-5-[(3R)-3-(methylamino)pyrrolidin-1yl]pyridazin-3-amine], 6.16 nM; in that of `CN[C@H]1CCN(c2cnnc(NCC(C)C)c2)C1` [Example 379, 5-[(3S)-3-(Methylamino)pyrrolidin-1-yl]-N-(2-methylpropyl)pyridazin-3-amine], 296 nM.
As for `CN[C@H]1CCN(c2cnnc(NCC3CCCC3)c2)C1` [Example 382, N-(Cyclopentylmethyl)-5-[(3S)-3-(methylamino)pyrrolidin-1-yl]pyridazin-3-amine], the Ki was found to be 138 nM.
With `CN[C@H]1CCN(c2cnnc(NCC(C)(C)CO)c2)C1` [Example 383, 2,2-Dimethyl-3-({5-[(3S)-3-(methylamino)pyrrolidin-1-yl]pyridazin-3-yl}amino)propan-1-ol], the inhibition constant Ki turned out to be 596 nM.
Take `CN[C@@H]1CCN(c2cnnc(NCc3ccc(C)cc3)c2)C1` [Example 384, 5-[(3R)-3-(Methylamino)pyrrolidin-1-yl]-N-(4-methylbenzyl)pyridazin-3-amine]: the inhibition constant Ki was 2000 nM.
To `CN[C@H]1CCN(c2cnnc(NCC(C)(C)C)c2)C1` [Example 385, N-(2,2-Dimethylpropyl)-5-[(3S)-3-(methylamino)pyrrolidin-1-yl]pyridazin-3-amine] belongs 259 nM; to `CN[C@@H]1CCN(c2cnnc(NCCCC(F)(F)F)c2)C1` [Example 386, 5-[(3R)-3-(Methylamino)pyrrolidin-1-yl]-N-(4,4,4-trifluorobutyl)pyridazin-3-amine], 284 nM; to `CN[C@@H]1CCN(c2cnnc(NCc3ccoc3)c2)C1` [Example 387, N-(Furan-3-ylmethyl)-5-[(3R)-3-(methylamino)pyrrolidin-1-yl]pyridazin-3-amine], 835 nM.
To `CN[C@@H]1CCN(c2cnnc(NCC3CCC4CC3C4(C)C)c2)C1` (stereo partly drawn) [Example 388, N-[(6,6-Dimethylbicyclo[3.1.1]hept-2-yl)methyl]-5-[(3R)-3-(methylamino)pyrrolidin-1-yl]pyridazin-3-amine] belongs 293 nM; to `CN[C@H]1CCN(c2cnnc(NCCCC(F)(F)F)c2)C1` [Example 389, 5-[(3S)-3-(Methylamino)pyrrolidin-1-yl]-N-(4,4,4-trifluorobutyl)pyridazin-3-amine], 1750 nM.
Consider `CN[C@@H]1CCN(c2cnnc(NCCCO)c2)C1` [Example 390, 3-({5-[(3R)-3-(Methylamino)pyrrolidin-1-yl]pyridazin-3-yl}amino)propan-1-ol], for which the Ki is more than 10000 nM.
In the case of `CN[C@@H]1CCN(c2cnnc(NCC3CCCCC3)c2)C1` [Example 391, N-(Cyclohexylmethyl)-5-[(3R)-3-(methylamino)pyrrolidin-1-yl]pyridazin-3-amine] it was 36.5 nM.
As for `CN[C@@H]1CCN(c2cnnc(NCCOC)c2)C1` [Example 393, N-(2-Methoxyethyl)-5-[(3R)-3-(methylamino)pyrrolidin-1-yl]pyridazin-3-amine], the inhibitory constant (Ki) was found to be 1810 nM.
To `CN[C@H]1CCN(c2cnnc(NCC3CCC4CC3C4(C)C)c2)C1` (stereo partly drawn) [Example 394, N-[(6,6-Dimethylbicyclo[3.1.1]hept-2-yl)methyl]-5-[(3S)-3-(methylamino)pyrrolidin-1-yl]pyridazin-3-amine] belongs 634 nM.
In the case of `CN[C@H]1CCN(c2cnnc(NC3CC3)c2)C1` [Example 395, N-Cyclopropyl-5-[(3S)-3-(methylamino)pyrrolidin-1-yl]pyridazin-3-amine] it was 1900 nM.
`CN[C@H]1CCN(c2cnnc(NCC3CCCCC3)c2)C1` [Example 396, N-(Cyclohexylmethyl)-5-[(3S)-3-(methylamino)pyrrolidin-1-yl]pyridazin-3-amine]: the inhibitory constant (Ki) was determined as 380 nM.
In the case of `CN[C@@H]1CCN(c2cnnc(NCc3ccccc3)c2)C1` [Example 397, N-Benzyl-5-[(3R)-3-(methylamino)pyrrolidin-1-yl]pyridazin-3-amine] it was 353 nM; in that of `CN[C@@H]1CCN(c2cnnc(NCc3ccc(F)cc3)c2)C1` [Example 398, N-(4-Fluorobenzyl)-5-[(3R)-3-(methylamino)pyrrolidin-1-yl]pyridazin-3-amine], 347 nM.
Regarding `CN[C@H]1CCN(c2cnnc(NCc3ccc(F)cc3)c2)C1` [Example 399, N-(4-Fluorobenzyl)-5-[(3S)-3-(methylamino)pyrrolidin-1-yl]pyridazin-3-amine], the Ki came out at 3940 nM.
As for `CN[C@@H]1CCN(c2cnnc(NCc3ccc(OC)cc3)c2)C1` [Example 400, N-(4-Methoxybenzyl)-5-[(3R)-3-(methylamino)pyrrolidin-1-yl]pyridazin-3-amine], the Ki amounted to 2150 nM.
In the case of `CN[C@@H]1CCN(c2cnnc(N[C@H](C)c3ccccc3)c2)C1` [Example 401, 5-[(3R)-3-(Methylamino)pyrrolidin-1-yl]-N-[(1R)-1-phenylethyl]pyridazin-3-amine] it was 79.3 nM.
Regarding `CN[C@H]1CCN(c2cnnc(NCCCO)c2)C1` [Example 403, 3-({5-[(3S)-3-(Methylamino)pyrrolidin-1-yl]pyridazin-3-yl}amino)propan-1-ol], the inhibition constant Ki was more than 10000 nM.
To `CN1CCN(c2cnnc(NCC(C)(C)C)c2)CC1` [Example 404, 5-(4-methylpiperazin-1-yl)-N-neopentylpyridazin-3-amine dihydro chloride] belongs 4300 nM.
`COCCNc1cc(N2CCN(C)CC2)cnn1` [Example 405, N-(2-Methoxyethyl)-5-(4-methylpiperazin-1-yl)pyridazin-3-amine]: the Ki was more than 10000 nM.
